The values that follow come from patent US20140120083A1, “TREATMENT OF CANCERS USING PI3 KINASE ISOFORM MODULATORS” (INFINITY PHARMACEUTICALS, INC., priority 2012, published 2014).

Usually IC50 stands for the concentration that gives 50% inhibition. By EC50 is commonly meant the concentration at which the effect is half-maximal. A lower EC50 goes with greater potency.

The structures appear in SMILES notation. Bounds are passed on as bounds.

The target in one assay is T1, PI3K γ (Homo sapiens, UniProt P48736).
T1 construct: purchased Sigma
The assay is described as follows: In vitro IC50, PI3K γ. It is filed as biochemical. From the text: (§1) An exemplary system is PI 3-Kinase (human) HTRF™ Assay from Upstate.

Another assay has as its target T2, PI3K α (Homo sapiens, UniProt P42336).
T2 construct: purchased Upstate
Description: In vitro IC50, PI3K α. It is filed as biochemical.
From the text: as §1

The subject of a further assay is B cell. The assay is described as follows: B cell proliferation. It is filed as cell-based.
A further assay addresses PI3K δ (Homo sapiens, UniProt O00329). Description: In vitro IC50, PI3K δ. Also on record: purchased Upstate. The class given is biochemical.
From the text: as §1

In a further assay the target is PI3K β (Homo sapiens, UniProt P42338). The assay is described as follows: In vitro IC50, PI3K β. The class given is biochemical.
From the text: as §1

PI3K β, sequence (P42338 whole entry): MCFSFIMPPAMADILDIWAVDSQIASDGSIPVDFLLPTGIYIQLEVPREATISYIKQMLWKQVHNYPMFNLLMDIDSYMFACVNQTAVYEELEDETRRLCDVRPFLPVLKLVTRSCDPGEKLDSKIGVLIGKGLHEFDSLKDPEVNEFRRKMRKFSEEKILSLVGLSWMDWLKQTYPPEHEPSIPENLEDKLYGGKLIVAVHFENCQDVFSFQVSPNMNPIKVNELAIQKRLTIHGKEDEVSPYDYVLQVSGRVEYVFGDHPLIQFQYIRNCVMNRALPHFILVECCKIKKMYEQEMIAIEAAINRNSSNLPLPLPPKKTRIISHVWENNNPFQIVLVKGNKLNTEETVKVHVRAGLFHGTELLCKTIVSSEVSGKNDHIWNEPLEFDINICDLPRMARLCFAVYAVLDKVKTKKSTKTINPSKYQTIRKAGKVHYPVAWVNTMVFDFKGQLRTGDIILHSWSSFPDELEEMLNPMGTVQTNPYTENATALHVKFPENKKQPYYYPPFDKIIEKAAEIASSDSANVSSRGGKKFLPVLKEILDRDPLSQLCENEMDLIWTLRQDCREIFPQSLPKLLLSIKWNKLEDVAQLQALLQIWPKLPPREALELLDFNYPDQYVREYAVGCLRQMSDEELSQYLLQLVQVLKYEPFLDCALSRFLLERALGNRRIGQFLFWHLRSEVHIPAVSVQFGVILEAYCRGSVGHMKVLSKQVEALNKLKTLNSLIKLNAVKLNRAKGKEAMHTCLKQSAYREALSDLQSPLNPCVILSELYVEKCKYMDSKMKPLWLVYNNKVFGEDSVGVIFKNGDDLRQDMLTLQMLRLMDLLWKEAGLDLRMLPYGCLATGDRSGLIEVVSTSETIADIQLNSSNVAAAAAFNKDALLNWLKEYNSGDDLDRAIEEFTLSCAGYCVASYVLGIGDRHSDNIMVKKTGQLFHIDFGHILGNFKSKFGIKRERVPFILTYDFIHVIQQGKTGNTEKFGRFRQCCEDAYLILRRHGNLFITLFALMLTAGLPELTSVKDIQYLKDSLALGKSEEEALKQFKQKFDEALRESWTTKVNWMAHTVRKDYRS
PI3K δ, sequence (O00329 whole entry): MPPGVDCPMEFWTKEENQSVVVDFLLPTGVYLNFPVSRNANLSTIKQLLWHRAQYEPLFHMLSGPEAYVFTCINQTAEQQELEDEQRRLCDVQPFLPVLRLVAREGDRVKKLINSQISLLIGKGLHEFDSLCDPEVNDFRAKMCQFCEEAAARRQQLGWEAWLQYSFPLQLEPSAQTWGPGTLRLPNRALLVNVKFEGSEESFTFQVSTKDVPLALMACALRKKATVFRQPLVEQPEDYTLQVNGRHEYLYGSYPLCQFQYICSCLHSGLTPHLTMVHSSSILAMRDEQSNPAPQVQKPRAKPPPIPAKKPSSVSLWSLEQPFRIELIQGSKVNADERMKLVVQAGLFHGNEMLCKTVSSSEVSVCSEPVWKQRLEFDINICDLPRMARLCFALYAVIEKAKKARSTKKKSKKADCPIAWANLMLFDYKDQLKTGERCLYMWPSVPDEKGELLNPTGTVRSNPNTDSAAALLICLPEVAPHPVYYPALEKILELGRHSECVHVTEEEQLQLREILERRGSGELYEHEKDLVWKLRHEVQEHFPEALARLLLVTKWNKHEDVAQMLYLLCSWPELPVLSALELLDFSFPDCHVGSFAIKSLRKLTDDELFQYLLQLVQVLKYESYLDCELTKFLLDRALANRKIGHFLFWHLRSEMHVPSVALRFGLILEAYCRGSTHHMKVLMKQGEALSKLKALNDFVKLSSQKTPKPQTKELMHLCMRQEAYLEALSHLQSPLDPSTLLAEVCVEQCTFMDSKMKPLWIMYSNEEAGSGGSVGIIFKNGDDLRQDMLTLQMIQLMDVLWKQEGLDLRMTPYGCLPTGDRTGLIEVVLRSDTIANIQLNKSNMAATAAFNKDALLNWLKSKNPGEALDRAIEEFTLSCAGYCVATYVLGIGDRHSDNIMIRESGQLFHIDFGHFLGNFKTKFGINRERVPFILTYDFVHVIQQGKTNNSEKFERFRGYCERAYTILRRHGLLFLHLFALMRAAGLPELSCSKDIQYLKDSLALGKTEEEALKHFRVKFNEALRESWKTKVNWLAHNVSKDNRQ
PI3K δ, sequence (P27986 whole entry partner): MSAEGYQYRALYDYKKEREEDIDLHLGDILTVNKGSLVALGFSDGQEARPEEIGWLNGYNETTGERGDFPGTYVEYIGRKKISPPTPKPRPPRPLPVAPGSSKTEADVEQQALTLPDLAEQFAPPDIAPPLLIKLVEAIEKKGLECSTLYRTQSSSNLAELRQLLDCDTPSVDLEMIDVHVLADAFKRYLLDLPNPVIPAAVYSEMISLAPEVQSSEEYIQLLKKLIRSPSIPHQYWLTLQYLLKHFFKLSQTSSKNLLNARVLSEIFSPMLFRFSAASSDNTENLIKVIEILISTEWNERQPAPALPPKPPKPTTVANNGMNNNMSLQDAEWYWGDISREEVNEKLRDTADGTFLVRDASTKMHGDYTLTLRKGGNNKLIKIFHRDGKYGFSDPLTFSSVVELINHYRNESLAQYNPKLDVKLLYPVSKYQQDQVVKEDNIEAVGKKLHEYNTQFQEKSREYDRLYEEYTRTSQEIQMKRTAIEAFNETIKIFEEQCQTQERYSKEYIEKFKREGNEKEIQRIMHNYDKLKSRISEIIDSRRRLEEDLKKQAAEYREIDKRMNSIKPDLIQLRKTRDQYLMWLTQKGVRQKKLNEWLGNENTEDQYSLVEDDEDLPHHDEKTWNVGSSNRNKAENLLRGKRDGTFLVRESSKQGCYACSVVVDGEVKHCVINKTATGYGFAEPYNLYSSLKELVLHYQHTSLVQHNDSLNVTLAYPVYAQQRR
T1 sequence (P48736 whole entry): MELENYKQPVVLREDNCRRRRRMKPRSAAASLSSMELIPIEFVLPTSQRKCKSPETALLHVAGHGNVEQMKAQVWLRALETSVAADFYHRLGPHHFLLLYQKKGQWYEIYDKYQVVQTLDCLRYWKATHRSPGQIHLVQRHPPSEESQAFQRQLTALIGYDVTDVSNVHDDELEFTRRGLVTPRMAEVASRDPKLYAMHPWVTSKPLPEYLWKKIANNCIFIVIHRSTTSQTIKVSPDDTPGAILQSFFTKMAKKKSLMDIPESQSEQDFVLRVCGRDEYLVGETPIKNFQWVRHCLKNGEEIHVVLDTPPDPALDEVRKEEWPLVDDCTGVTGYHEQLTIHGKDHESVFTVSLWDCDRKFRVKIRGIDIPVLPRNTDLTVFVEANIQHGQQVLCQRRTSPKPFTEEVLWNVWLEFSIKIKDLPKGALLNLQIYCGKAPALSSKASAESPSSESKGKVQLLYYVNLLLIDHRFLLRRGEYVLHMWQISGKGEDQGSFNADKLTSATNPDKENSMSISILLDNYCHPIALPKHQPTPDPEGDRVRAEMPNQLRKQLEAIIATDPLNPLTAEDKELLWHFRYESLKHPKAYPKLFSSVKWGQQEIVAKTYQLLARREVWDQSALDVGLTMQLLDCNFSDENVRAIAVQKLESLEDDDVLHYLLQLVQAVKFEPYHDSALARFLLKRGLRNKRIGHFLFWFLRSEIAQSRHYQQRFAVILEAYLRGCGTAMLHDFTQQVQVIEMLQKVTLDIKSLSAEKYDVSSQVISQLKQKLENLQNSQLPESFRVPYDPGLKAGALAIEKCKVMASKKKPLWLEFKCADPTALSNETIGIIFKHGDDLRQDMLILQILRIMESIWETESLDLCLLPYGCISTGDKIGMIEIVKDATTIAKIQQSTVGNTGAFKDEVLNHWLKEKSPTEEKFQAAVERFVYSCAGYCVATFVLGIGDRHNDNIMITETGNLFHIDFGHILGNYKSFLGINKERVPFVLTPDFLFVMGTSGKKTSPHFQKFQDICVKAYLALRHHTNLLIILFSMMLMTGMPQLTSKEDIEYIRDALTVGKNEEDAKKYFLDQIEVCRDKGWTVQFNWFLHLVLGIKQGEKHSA
T2 sequence (P42336 whole entry): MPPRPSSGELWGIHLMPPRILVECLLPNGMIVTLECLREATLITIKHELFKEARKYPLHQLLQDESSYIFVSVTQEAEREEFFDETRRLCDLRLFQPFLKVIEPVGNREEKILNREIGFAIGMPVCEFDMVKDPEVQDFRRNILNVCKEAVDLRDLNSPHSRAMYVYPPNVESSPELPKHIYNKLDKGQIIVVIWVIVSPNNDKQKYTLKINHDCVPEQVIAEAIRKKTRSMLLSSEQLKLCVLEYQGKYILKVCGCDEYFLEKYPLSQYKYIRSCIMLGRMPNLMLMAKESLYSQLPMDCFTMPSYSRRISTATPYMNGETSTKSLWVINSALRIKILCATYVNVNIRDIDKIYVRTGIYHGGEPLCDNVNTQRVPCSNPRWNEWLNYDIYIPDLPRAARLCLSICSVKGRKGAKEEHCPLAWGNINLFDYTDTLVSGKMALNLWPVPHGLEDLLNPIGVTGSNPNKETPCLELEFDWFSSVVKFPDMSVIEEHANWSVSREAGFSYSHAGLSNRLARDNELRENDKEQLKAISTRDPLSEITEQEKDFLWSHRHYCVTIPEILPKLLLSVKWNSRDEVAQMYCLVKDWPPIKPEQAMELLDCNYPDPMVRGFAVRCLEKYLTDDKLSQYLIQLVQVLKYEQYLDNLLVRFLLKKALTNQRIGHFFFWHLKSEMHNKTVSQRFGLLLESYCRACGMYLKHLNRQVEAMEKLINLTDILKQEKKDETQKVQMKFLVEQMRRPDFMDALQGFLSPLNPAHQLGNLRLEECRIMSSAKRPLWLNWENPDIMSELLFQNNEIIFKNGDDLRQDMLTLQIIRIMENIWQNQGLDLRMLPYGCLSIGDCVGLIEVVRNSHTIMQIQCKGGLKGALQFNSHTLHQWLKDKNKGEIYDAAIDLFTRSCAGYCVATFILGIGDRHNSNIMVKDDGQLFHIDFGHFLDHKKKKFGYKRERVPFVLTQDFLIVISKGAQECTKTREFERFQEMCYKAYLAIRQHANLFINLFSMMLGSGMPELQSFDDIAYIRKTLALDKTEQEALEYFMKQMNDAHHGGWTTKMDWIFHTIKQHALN
T2 sequence (P27986 whole entry partner): as the sequence (P27986 whole entry partner) above

Consider `Cc1ccccc1-n1c(Cn2nc(I)c3c(N)ncnc32)cc2cccc(C)c2c1=O` [Compound 6], for which the IC50 against PI3K γ is below 0.1 µM; against PI3K α it was above 10 µM; against PI3K δ, below 0.1 µM. In the assay with B cell, the EC50 is below 0.1 µM.

As to `Cc1cccc2cc(Cn3nc(-c4ccc(F)c(O)c4)c4c(N)ncnc43)n(-c3ccccc3F)c(=O)c12` [Compound 9], the IC50 against PI3K γ was below 1 µM; against PI3K α, above 10 µM; on PI3K β, above 10 µM; at PI3K δ, below 0.1 µM.

In the case of `Cc1ccccc1-n1c(Cn2nc(-c3ccc4nc(N)[nH]c4c3)c3c(N)ncnc32)cc2cccc(C)c2c1=O` [Compound 295], the IC50 was below 0.1 µM against PI3K γ, below 10 µM against PI3K α, below 10 µM against PI3K β and below 0.1 µM on PI3K δ.

With `Cc1cccc2cc(C(C)Nc3ncnc4[nH]cnc34)n(C3CCN(C)CC3)c(=O)c12` (stereo not shown) [Compound 227], the IC50 against PI3K γ is above 10 µM; at PI3K α, above 10 µM; against PI3K β, below 1 µM; against PI3K δ, below 0.1 µM.

With `Cc1ccccc1-n1c(Cn2nc(-c3cccc(F)c3)c3c(N)ncnc32)cc2cccc(C)c2c1=O` [Compound 41], the IC50 is below 1 µM at PI3K γ, above 10 µM against PI3K α, above 10 µM at PI3K β and below 10 µM on PI3K δ.

Regarding `Cc1cccc2cc(C(C)Nc3nc(O)ncc3N)n(-c3ccccc3)c(=O)c12` (stereo not shown) [Compound 321], the IC50 against PI3K γ, against PI3K α, on PI3K β and at PI3K δ was above 10 µM throughout.

Regarding `Cc1cccc2cc([C@@H](C)Nc3ncnc4[nH]cnc34)n(C3CCC3)c(=O)c12` [Compound 197], the IC50 is below 10 µM at PI3K γ, above 10 µM against PI3K α, above 10 µM at PI3K β and above 10 µM against PI3K δ.

With `Cc1ccccc1-n1c(Cn2nc(-c3ccc(O)cc3)c3c(N)ncnc32)cc2cccc(C)c2c1=O` [Compound 36], the IC50 is below 0.1 µM against PI3K γ, above 10 µM against PI3K α, above 10 µM on PI3K β and below 1 µM on PI3K δ.

For the compound `Cc1cccc2cc(Cn3nc(-c4cccc(O)c4)c4c(N)ncnc43)n(-c3ccccc3O)c(=O)c12` [Compound 81], the IC50 is below 0.1 µM on PI3K γ, above 10 µM against PI3K α, below 10 µM against PI3K β and below 0.1 µM against PI3K δ.

Consider `Cc1cccc2cc([C@H](C)Nc3nc(N)ncc3C(F)(F)F)n(-c3ccccc3)c(=O)c12` [Compound 324], for which the IC50 against PI3K γ was below 0.1 µM; against PI3K α, above 10 µM; on PI3K β it was below 10 µM; against PI3K δ it was below 0.1 µM.

As for `Cc1cccc2cc([C@H](C)Nc3nc(F)nc4[nH]cnc34)n(C3CC3)c(=O)c12` [Compound 279], the IC50 was below 1 µM on PI3K γ, below 10 µM against PI3K α, below 0.1 µM against PI3K β and below 0.1 µM against PI3K δ.

`CC(=O)Nc1nc2cc(-c3nn(Cc4cc5cccc(C)c5c(=O)n4-c4ccccc4)c4ncnc(N)c34)ccc2o1` [Compound 253]: the IC50 against PI3K γ was below 0.1 µM; at PI3K α, below 10 µM; against PI3K β it was below 0.1 µM; at PI3K δ, below 0.1 µM.

Regarding `Cc1ccccc1-n1c(Cn2nc(-c3ccn[nH]3)c3c(N)ncnc32)cc2cccc(C)c2c1=O` [Compound 182], the IC50 on PI3K γ was below 0.1 µM; against PI3K α, above 10 µM; on PI3K β it was above 10 µM; on PI3K δ it was below 1 µM.

As to `CCC(Nc1ncnc2[nH]cnc12)c1cc2cccc(C)c2c(=O)n1-c1cc(F)cc(F)c1` (stereo not shown) [Compound 224], the IC50 on PI3K γ is below 10 µM; on PI3K α it was above 10 µM; against PI3K β, above 10 µM; against PI3K δ, below 0.1 µM.

As for `Cc1cccc2cc(Cn3nc(I)c4c(N)ncnc43)n(-c3ccccc3OCCN3CCOCC3)c(=O)c12` [Compound 103], the IC50 against PI3K γ is below 1 µM; against PI3K α, above 10 µM; at PI3K β, above 10 µM; against PI3K δ, below 0.1 µM.

`Cc1cccc2cc(Cn3nc(C(C)C)c4c(N)ncnc43)n(-c3ccccc3)c(=O)c12` [Compound 317]: the IC50 at PI3K γ was above 10 µM; on PI3K α, above 10 µM; against PI3K β, above 10 µM; against PI3K δ it was below 10 µM.

For `Cc1ccccc1-n1c(Cn2nc(-c3cc(O)cc(F)c3)c3c(N)ncnc32)cc2cccc(F)c2c1=O` [Compound 55], the IC50 was below 1 µM at PI3K γ, above 10 µM at PI3K α, below 10 µM against PI3K β and below 0.1 µM against PI3K δ.

On to `Cc1ccccc1-n1c(Cn2nc(-c3cn[nH]c3)c3c(N)ncnc32)cc2cccc(C)c2c1=O` [Compound 160], for which the IC50 against PI3K γ is below 0.1 µM; against PI3K α, above 10 µM; on PI3K β, below 10 µM; against PI3K δ, below 0.1 µM.

With `Cc1cccc2cc(Cn3nc(-c4ccc(Cl)c(O)c4)c4c(N)ncnc43)n(C3CCCC3)c(=O)c12` [Compound 71], the IC50 on PI3K γ was below 1 µM; against PI3K α, above 10 µM; against PI3K β it was below 10 µM; against PI3K δ, below 1 µM.

Consider `Cc1cccc2cc([C@H](C)Nc3ncc(C(F)(F)F)c(N)n3)n(-c3ccccc3)c(=O)c12` [Compound 325], for which the IC50 against PI3K γ is above 10 µM; at PI3K α, above 10 µM; against PI3K β, above 10 µM; against PI3K δ, below 10 µM.

With `CC(=O)Nc1nc2ccc(-c3nn(Cc4cc5cccc(C)c5c(=O)n4-c4ccccc4C)c4ncnc(N)c34)cc2[nH]1` [Compound 296], the IC50 on PI3K γ is below 0.1 µM; against PI3K α it was below 10 µM; against PI3K β it was below 10 µM; on PI3K δ it was below 0.1 µM.

On to `C=Cc1nn(Cc2cc3cccc(C)c3c(=O)n2-c2ccccc2F)c2ncnc(N)c12` [Compound 179], for which the IC50 on PI3K γ was below 10 µM; on PI3K α it was above 10 µM; on PI3K β, above 10 µM; on PI3K δ it was below 1 µM.

On to `Cc1cccc2cc([C@H](C)Nc3nc(N)ncc3C(N)=O)n(C3CC3)c(=O)c12` [Compound 282], for which the half-maximal inhibitory concentration (IC50) at PI3K γ, against PI3K α, against PI3K β and on PI3K δ was above 10 µM in each case.

In the case of `Cc1cccc2cc(Cn3nc(I)c4c(N)ncnc43)n(-c3ccccc3O)c(=O)c12` [Compound 79], the half-maximal inhibitory concentration (IC50) is below 0.1 µM against PI3K γ, above 10 µM on PI3K α, above 10 µM against PI3K β and below 0.1 µM at PI3K δ.

On to `Cc1cccc2cc(C(C)Nc3nc(N)nc4[nH]cnc34)n(-c3ccccc3)c(=O)c12` (stereo not shown) [Compound 320], for which the IC50 was below 0.1 µM on PI3K γ, below 1 µM against PI3K α, below 0.1 µM at PI3K β and below 0.1 µM on PI3K δ.

For the compound `Cc1cccc2cc(Cn3nc(-c4ccc5oc(N)nc5c4)c4c(N)ncnc43)n(C3CCC3)c(=O)c12` [Compound 208], the IC50 on PI3K γ is below 0.1 µM; on PI3K α, below 1 µM; against PI3K β, below 1 µM; against PI3K δ, below 0.1 µM.

For the compound `Cc1cccnc1-n1c(Cn2nc(-c3cc(O)cc(F)c3)c3c(N)ncnc32)cc2ccccc2c1=O` [Compound 93], the IC50 against PI3K γ is below 1 µM; against PI3K α it was above 10 µM; on PI3K β, above 10 µM; against PI3K δ it was below 0.1 µM.

`CC(=O)Nc1nc2ccc(-c3nn(Cc4cc5cccc(C)c5c(=O)n4-c4ccccc4)c4ncnc(N)c34)cc2o1` [Compound 269]: the concentration for half-maximal inhibition (IC50) was below 1 µM against PI3K γ, below 10 µM against PI3K α, below 10 µM at PI3K β and below 1 µM against PI3K δ.

As to `Cc1cccc2cc(Cn3nc(C4=CCOCC4)c4c(N)ncnc43)n(-c3ccccc3)c(=O)c12` [Compound 315], the IC50 on PI3K γ, on PI3K α, against PI3K β and on PI3K δ was above 10 µM throughout.

Take `Cc1cccnc1-n1c(Cn2nc(-c3ccc4oc(N)nc4c3)c3c(N)ncnc32)cc2cccc(C)c2c1=O` [Compound 240]: the IC50 at PI3K γ was below 0.1 µM; against PI3K α, below 10 µM; against PI3K β, below 10 µM; against PI3K δ, below 0.1 µM.

On to `Cc1cccnc1-n1c(Cn2nc(-c3ccc(F)c(O)c3)c3c(N)ncnc32)cc2cccc(C)c2c1=O` [Compound 68], for which the IC50 against PI3K γ was below 0.1 µM; against PI3K α, above 10 µM; on PI3K β it was above 10 µM; against PI3K δ, below 0.1 µM.

For `CCC(Nc1ncnc2[nH]cnc12)c1cc2cccc(C)c2c(=O)n1C1CCN(C)CC1` (stereo not shown) [Compound 228], the IC50 is above 10 µM against PI3K γ, above 10 µM on PI3K α, below 10 µM on PI3K β and below 1 µM at PI3K δ.

`Cc1ccccc1-n1c(Cn2nc(-c3ccc4nc(N)ncc4c3)c3c(N)ncnc32)cc2cccc(C)c2c1=O` [Compound 150]: the IC50 at PI3K γ was below 0.1 µM; on PI3K α, below 0.1 µM; on PI3K β, below 1 µM; against PI3K δ, below 0.1 µM.

In the case of `Cc1cccc2cc([C@H](C)Nc3nc(N)ncc3F)n(-c3ccccc3)c(=O)c12` [Compound 271], the IC50 is below 1 µM against PI3K γ, above 10 µM against PI3K α, above 10 µM against PI3K β and below 0.1 µM on PI3K δ.
